Test results reported in patent publication US9834541B2, “2-aminopyridine compounds” (Merck Patent GmbH, priority 2012, dated 2017).

Columns and labels:
[1] = CLint (intrinsic clearance) assay, liver microsomal incubation; type: in vitro ADME, human; conditions: liver microsomes, pH 7.4; human hepatic microsomes, 0.5 mg/mL protein, class symbols
In short: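 Human liver microsomes (0.5 mg/mL protein) in 0.1 M potassium phosphate pH 7.4 with 1 mM MgCl2 were incubated at 37 °C with NADPH and compound (diluted to 0.8 μM), with no-cofactor controls. Samples were acetonitrile-quenched at 0–30 min. CLint (μL/min/mg protein) = k·1000/protein concentration, from the LC-MS/MS peak-area decline slope.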

[2] = system: Wnt pathway; experiment: Cellular assay for Wnt pathway activity, LS174T-shl-fLuc clone 5 (LS174T-L5) luciferase reporter assay; type: cell-based; conditions: Homo sapiens; LS174T TCF luciferase reporter cells, 24 hours incubation
In short: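 LS174T human colon cancer cells stably carrying a 16×TCF/LEF-driven short-half-life firefly luciferase reporter were treated with compounds at 30 μM to 1 nM for 24 hours. Luciferase luminescence normalized to vehicle control; IC50 from curve fitting.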

| SMILES | microsomal CLint at 0.8 μM [1] [µL/min/mg] | IC50 [2] [nM] |
| --- | --- | --- |
| CCN1c2ccc(-c3cnc(N)c(Cl)c3N3CCC4(CCNC4=O)CC3)cc2CS1(=O)=O [Compound 58, 8-[2-Amino-3-chloro-5-(1-ethyl-2,2-dioxo-2,3-dihydro-1H-2I6-benzo[c]isothiazol-5-yl)-pyridin-4-yl]-2,8-diaza-spiro[4.5] decan-1-one] | ≥ 150 | 7.6 |
| CS(=O)(=O)CCn1cc(-c2ccc(-c3cnc(N)c(Cl)c3N3CCC4(CCNC4=O)CC3)cc2)cn1 [Compound 59, 8-(2-Amino-3-chloro-5-{4-[1-(2-methanesulfonyl-ethyl)-1H-pyrazol-4-yl]-phenyl}-pyridin-4-yl)-2,8-diaza-spiro[4.5] decan-1-one] | 10 to 50 | 45 |
| CN1c2ccc(-c3cnc(N)c(F)c3N3CCC4(CC3)CNC(=O)O4)cc2CS1(=O)=O [Compound 60, 8-[2-Amino-3-fluoro-5-(1-methyl-2,2-dioxo-2,3-dihydro-1H-2l6-benzo[c]isothiazol-5-yl)-pyridin-4-yl]-1-oxa-3,8-diaza-spiro[4.5]decan-2-one] | < 10 | 103 |
| CN1c2ccc(-c3cnc(N)c(F)c3N3CCC4(CCNC4=O)CC3)cc2CS1(=O)=O [Compound 61, 8-[2-Amino-3-fluoro-5-(1-methyl-2,2-dioxo-2,3-dihydro-1H-2l6-benzo[c]isothiazol-5-yl)-pyridin-4-yl]-2,8-diaza-spiro[4.5]decan-1-one] | 10 to 50 | 60.1 |
| Nc1ncc(-c2ccc3c(c2)CCS3(=O)=O)c(N2CCC3(CCNC3=O)CC2)c1Cl [Compound 62, 8-[2-Amino-3-chloro-5-(1,1-dioxo-2,3-dihydro-1H-1I6-benzo[b]thiophen-5-yl)-pyridin-4-yl]-2,8-diaza-spiro[4.5] decan-1-one] | 10 to 50 | 450 |
| Cn1cc(-c2ccc(-c3cnc(N)c(F)c3N3CCC4(CC3)CNC(=O)O4)cc2)cn1 [Compound 63, 8-{2-Amino-3-fluoro-5-[4-(1-methyl-1H-pyrazol-4-yl)-phenyl]-pyridin-4-yl}-1-oxa-3,8-diaza-spiro[4.5] decan-2-one] | 10 to 50 | 237 |

Next, values leading:

| microsomal CLint at 0.8 μM [1] [µL/min/mg] | IC50 [2] [nM] | SMILES |
| --- | --- | --- |
| 10 to 50 | 644 | Cn1ncc2cc(-c3cnc(N)c(F)c3N3CCC4(CCNC4=O)CC3)ccc21 [Compound 64, 8-[2-Amino-3-fluoro-5-(1-methyl-1H-indazol-5-yl)-pyridin-4-yl]-2,8-diaza-spiro[4.5] decan-1-one] |
| 10 to 50 | 14 | CN1c2ccc(-c3cnc(N)c(Cl)c3N3CC[C@H](C#N)[C@@H](O)C3)cc2CS1(=O)=O [Compound 65, (3R,4R)-2′-Amino-3′-chloro-3-hydroxy-5′-(1-methyl-2,2-dioxo-2,3-dihydro-1H-2I6-benzo[c]isothiazol-5-yl)-3,4,5,6-tetrahydro-2H-[1,4′] bipyridinyl-4-carbonitrile] |
| 10 to 50 | 403 | CN1c2ccc(-c3cnc(N)c(Cl)c3N3CC[C@@H](C#N)[C@H](O)C3)cc2CS1(=O)=O [Compound 66, (3S,4S)-2′-Amino-3′-chloro-3-hydroxy-5′-(1-methyl-2,2-dioxo-2,3-dihydro-1H-2I6-benzo[c]isothiazol-5-yl)-3,4,5,6-tetrahydro-2H-[1,4′] bipyridinyl-4-carbonitrile] |
| 10 to 50 | 49 | CC(C)(O)Cn1cc(-c2ccc(-c3cnc(N)c(Cl)c3N3CCC4(CCNC4=O)CC3)cc2)cn1 [Compound 67, 8-(2-Amino-3-chloro-5-{4-[1-(2-hydroxy-2-methyl-propyl)-1H-pyrazol-4-yl]-phenyl}-pyridin-4-yl)-2,8-diaza-spiro[4.5] decan-1-one] |
| < 10 | 59 | CCN1Cc2cc(-c3cnc(N)c(Cl)c3N3CCC4(CCNC4=O)CC3)ccc2S1(=O)=O [Compound 68, 8-[2-Amino-3-chloro-5-(2-ethyl-1,1-dioxo-2,3-dihydro-1H-1l6-benzo[d]isothiazol-5-yl)-pyridin-4-yl]-2,8-diaza-spiro[4.5]decan-1-one] |
